These results are taken from patent publication US20230046947A1, “REACTIVE CONJUGATES” (Debiopharm Research & Manufacturing S.A., priority 2019, published 2023).

For this test, the target named is T1, Fc region of trastuzumab (Homo sapiens, UniProt P01857).
T1 construct: made in house; host or cells: recombinant CHO cell lines
Description: Competitive FP binding assay against Fc-III-FAM. To be noted: for binding to the Fc region of trastuzumab (in words): competitive FP against Fc-III-FAM. The protocol: The competitive FP measurements were performed on SpectraMax Paradigm Multi-Mode Detection Platform (Molecular Devices) in flat-bottom 384-well Corning microplates (Merck KGaA), using excitation and emission wavelengths of 485 nm and 535 nm, respectively. The acquisition time was 700 milliseconds and the read height was 1 mm. All reagents used in the assay were diluted in PBS containing 0.05% Tween 20.
The mixture was incubated at 27° C. for 15 min and the fluorescence signal was red on a Spectramax Paradigm. All sample preparations were done in PBS pH 7.4 or 7.0 containing 0.05% Tween. Each experiment was performed in triplicate.

Broadly, the IC50 is the concentration needed to halve the response being measured.

Where a SMILES comes first, the peptide text is derived from it. Bridges are numbered along the chain shown (N, C = ends). Where no end group is shown, it is not given here. [ ]: non-standard residue; d: D form. PEG20 = NCCOCCOCCOCCOCCOCCOCCOCCOCCOCCOCCOCCOCCOCCOCCOCCOCCOCCOCCOCCOCCC(=O)O

As to `CC(C)C[C@@H]1NC(=O)[C@H](Cc2c[nH]cn2)NC(=O)[C@H](Cc2c[nH]c3ccccc23)NC(=O)[C@H](C)NC(=O)[C@@H](NC(=O)[C@H](CC(=O)O)NC(=O)[C@@H]2CCCN2C(=O)[C@@H]2CCCN2C(=O)[C@@H]2CCCN2C(=O)[C@@H]2CCCN2C(=O)[C@@H]2CCCN2C(=O)[C@@H]2CCCN2C(=O)CNC(=O)CNC(=O)[C@@H](N)CO)CSSC[C@@H](C(=O)N[C@H](C(N)=O)[C@@H](C)O)NC(=O)[C@H](Cc2c[nH]c3ccccc23)NC(=O)[C@H](C(C)C)NC(=O)[C@H](CC(C)C)NC(=O)[C@H](CCC(=O)O)NC(=O)CNC1=O` [Compound 2] (H-SGGPPPPPPDCAWHLGELVWCT-NH2; disulfide 11-21 (inferred)), the IC50 was 0.061 ± 0.033 µM and the “binding to the Fc region of trastuzumab (in words)” value (“binding to the Fc region” below) is “high affinity”.
For `CC(C)C[C@@H]1NC(=O)[C@H](Cc2c[nH]cn2)NC(=O)[C@H](Cc2c[nH]c3ccccc23)NC(=O)[C@H](C)NC(=O)[C@@H](NC(=O)[C@@H](N)CC(=O)O)CSSC[C@@H](C(=O)N[C@H](C(N)=O)[C@@H](C)O)NC(=O)[C@H](C)NC(=O)[C@H](Cc2c[nH]c3ccccc23)NC(=O)[C@H](CC(C)C)NC(=O)[C@H](CCC(=O)O)NC(=O)CNC1=O` [Compound 13] (H-DCAWHLGELWACT-NH2; disulfide 2-12 (inferred)), the IC50 stood at 36.5 ± 15.6 µM.
With `CC(C)C[C@H](NC(=O)[C@H](Cc1c[nH]cn1)NC(=O)[C@H](Cc1c[nH]c2ccccc12)NC(=O)[C@H](C)NC(=O)[C@H](C)NC(=O)[C@H](CC(=O)O)NC(=O)CCOCCOCCOCCOCCOCCOCCOCCOCCOCCOCCOCCOCCOCCOCCOCCOCCOCCOCCOCCOCCN)C(=O)NCC(=O)N[C@@H](CCC(=O)O)C(=O)N[C@@H](CC(C)C)C(=O)N[C@H](C(=O)N[C@@H](Cc1c[nH]c2ccccc12)C(=O)N[C@@H](C)C(=O)N[C@H](C(N)=O)[C@@H](C)O)C(C)C` [Compound 16] (H-[PEG20]DAAWHLGELVWAT-NH2), the IC50 was determined as 10.7 ± 11.9 µM and the “binding to the Fc region” value is recorded as “impaired peptide binding”.
As to “NH2—(PEG)20—CH2CH2—CO—DCAWHLGELWACT—NH2 ([PEG20]DCAWHLGELWACT-NH2; disulfide 3-13 (inferred)) [Compound 15]”, the “binding to the Fc region” value was “impaired peptide binding”.
